US5235045A, “Non-azo naphthalimide dyes” (priority 1992, dated 1993)
Like-named read-outs stand apart in the source and are kept apart here.

What was measured:
[1] = system: H9 cells; experiment: Location in living cells (fluorescence microscopy); type: cell-based, human; conditions: 5 and 25 μM; 1.5 hours
Method: Following the protocol of (1), above, H9 cells were stained with Compound lb, and the technique of fluorescent microscopy was used to determine visually the sites of localization of dye fluorescence in living cells. Specifically, H9 cells were counted with a hemocytometer and diluted to 5×10^5 /ml. Compound 1b was added to two aliquots to give dye concentrations of 5 and 25 μM, and the tubes were incubated for 1.5 hours. Cytospin slides of the cell suspensions were made and they were examined with the fluorescence microscope (Olympus AH-2) using B excitation plus a 460 nm interference excitation filter and a 495 nm emission filter. The cells were also counted with a hemocytometer and their viability determined (see below). […] The former may reflect the diffusional component of the dye incorporation, or may reflect binding in the ER membrane. The latter may indicate lysosomal localization of pinocytosed dye as occurs with Lucifer Yellow.

[2] = system: H9 cells; experiment: Take-up of Ed6Br by H9 cells; type: cell-based, human; conditions: for Cellular Ed6Br: 22° C.
Method: H9 cells (an immortal human T-cell lymphoma) were cultured in RPMI-1640 medium containing 10% additional fetal calf serum held in air with a 5% CO2 atmosphere at 37.5° C. to a cell density in the range of 10^5 -10^7 per ml. Cells were harvested by centrifugation and four 3-milliliter aliquots containing 5×10^5 H9 cells per ml suspended in RPM I-1640 medium with 10% additional fetal calf serum were prepared. […] The fourth aliquot served as a dye-free control. Immediately after addition of the dyes, 1 ml samples were harvested from each aliquot and the cells washed by dilution into 3 ml phosphate buffered saline (pH 7.3), followed by two repetitions of centrifugation, decantation of the supernatant, and resuspension of the cell pellet in the buffered saline solution, and a final centrifugation, decantation, and retention of the cell pellet at 4° C. for subsequent analysis. At the subsequent elapsed incubation times at 1, 2, 3, and 4 hrs., one milliliter samples were harvested and treated in an identical fashion. After treatment of the 4-hr. sample, the cells of each sample were lysed in 3 ml of an 0.1% solution of ctyltetraammonium bromide detergent in phosphate buffered saline (pH=7.3). The fluorescence emission at 520 nm (420 nm excitation) of each sample was determined with a SLM SPT 500C spectrofluorometer. Additionally, the emission intensity of samples of these detergent solutions having, respectively, dye concentrations of […] were prepared as standards for calibrating the concentration dependence of the fluorescence emission.

[3] = system: H9 cells; experiment: Effects on H9 cells of Ed6Br with prior activation by 420 nm light (Trypan Blue); type: cell-based; conditions: Homo sapiens, H9, 24 h, read-out: % Viable Cells
Method: H9 cells were cultivated in RPMI-1640 medium containing an additional 10% fetal calf serum at 37.5° C. in air having added 5% CO2. A 5.46 ml aliquot of cell suspension containing 9.16×10^5 H9 cells per ml was harvested, the cells sedimented at 450 x g for 10 minutes and resuspended in fresh growth medium. Two hundred microliter aliquots of the suspension were centrifuged as above and the resulting cell pellet served for resuspension in dye plus medium suspension for this study.
Six milliliters of suspension of Cremophor EL micelles containing Ed6Br in RPMI-1640 containing 10% additional fetal calf serum was made by diluting a 2.5 millimeter solution of the dye in Cremophor EL to give an average Ed6Br concentration of […], and the resulting suspension divided into 2 three milliliter aliquots. One aliquot was irradiated with 420 #5 nm light filtered from a xenon arc lamp at an irradiance of 20 mW/cm^2 to a total fluence of 200 J/cm^2. The companion aliquot was wrapped in aluminum foil and handled in identical fashion to the irradiated sample. These two aliquots served as stocks for deforming effects of both previously irradiated and un-irradiated Ed6Br at different concentrations from 0 up to 100 mM on H9 cells kept in the dark. Dulutions of the stock dye suspension into additional fresh growth medium were made within 1 hour of light irradiation to give dye-medium suspensions with average Ed6Br concentrations of […] for both previously irradiated and dark dye samples. The H9 cell pellets were resuspended in these dye-Cremophor EL suspensions and held at 37.5° C. in an air atmosphere containing an additional 5% CO2. After 24 hrs. culture of the number of total and viable […] was determined by Trypan Blue exclusion using a hemocytometer and microscope for cell counting.

[4] = system: Vesicular stomatitis Virus (Ogden strain) (VSV), G-protein; type: biochemical; conditions: 10.0 μM, 460 J/cm^2
[5] = system: F-actin polymers of G-actin; experiment: Protein crosslinking with DiEd6Br: F-actin; type: biochemical; conditions: 40.0 μM, 400 J/cm^2
[6] = 4 hr, external 25 mM (so in the source)
[7] = 2 G-protein units or 1 G-protein + 2 M-protein units

## CCCCCCNc1ccc2c3c(cccc13)C(=O)N(CCCCCC)C2=O [Compound 1b, 4-(hexyl)amino-N-hexyl-1,8-naphthalimide]
[1]
  localization in cell nucleus: rigorously excluded from the cell nucleus
  site of dye fluorescence: highly fluorescent with the cytoplasm being the primary site

## CCCCCCNc1c(Br)cc2c3c(cccc13)C(=O)N(CCCCCC)C2=O [Compound VII, 3-bromo-4-(hexyl)amino-N-hexyl-1,8-naphthalimide]
[2]; [6]
  average dye concentration in H9 cell: about 1.92 millimolar
  cellular over external concentration: approximately 77 times
[2]; 4 hr, external 1 and 5 mm (so in the source)
  increased concentration of the dye by the cell: ~70 fold
[2]; external 1 μM, 0 hr, 1 a° mol = 1 × 10^-18 mol
  Cellular Ed6Br: 91.2 a° mol/cell
[2]; external 1 μM, 1 hr
  Cellular Ed6Br: 130.2 a° mol/cell
[2]; external 1 μM, 2 hr
  Cellular Ed6Br: 189.8 a° mol/cell
[2]; external 1 μM, 3 hr
  Cellular Ed6Br: 186.0 a° mol/cell
[2]; external 1 μM, 4 hr
  Cellular Ed6Br: 208.3 a° mol/cell
[2]; external 5 μM, 0 hr
  Cellular Ed6Br: 165.6 a° mol/cell
[2]; external 5 μM, 1 hr
  Cellular Ed6Br: 385.1 a° mol/cell
[2]; external 5 μM, 2 hr
  Cellular Ed6Br: 437.2 a° mol/cell
[2]; external 5 μM, 3 hr
  Cellular Ed6Br: 468.8 a° mol/cell
[2]; external 5 μM, 4 hr
  Cellular Ed6Br: 548.9 a° mol/cell
[2]; external 25 μM, 0 hr
  Cellular Ed6Br: 316.2 a° mol/cell
[2]; external 25 μM, 1 hr
  Cellular Ed6Br: 716.3 a° mol/cell
[2]; external 25 μM, 2 hr
  Cellular Ed6Br: 1073.4 a° mol/cell
[2]; external 25 μM, 3 hr
  Cellular Ed6Br: 1689.3 a° mol/cell
[2]; external 25 μM, 4 hr
  Cellular Ed6Br: 1748.8 a° mol/cell
[3]; no previous light activation
  viability at 1 µM: 72.7%
  viability at 10 µM: 77.2%
  viability at 25 µM: 57.9%
  viability at 50 µM: 27.4%
  viability at 75 µM: 33.9%
[3]; previous light activation
  viability at 1 µM: 68.4%
  viability at 10 µM: 31.8%
  viability at 25 µM: 4.9%
  viability at 50 µM: 0%
  viability at 75 µM: 0%

## CCCCCCN1C(=O)c2cccc3c(NCCNC(=O)CCCCC(=O)NCCNc4c(Br)cc5c6c(cccc46)C(=O)N(CCCCCC)C5=O)c(Br)cc(c23)C1=O [Compound XLIV]
[4]
  heavier bands: many ill separated heavier bands merging together near
[4]; [7]
  Inferred Crosslinked Species: 2 G-protein
  Inferred Crosslinked Species, Gel mw: 130 kD
[5]
  heavier bands: many ill separated heavier bands merging together near
[5]; first species
  Inferred Crosslinked Species: 2 G-actin
[5]; second species
  Inferred Crosslinked Species: 3 G-actin
[5]; 2 G-actin monomers
  Inferred Crosslinked Species, Gel mw: 94 kD
[5]; 3 G-actin monomers
  Inferred Crosslinked Species, Gel mw: 141 kD
